In patent US11352396B2, “Antimicrobial peptides and methods of using same” (Zoetis Services LLC, priority 2017, dated 2022):

What was measured:
S. aureus ATCC 29213 = type: cell-based; set-up: key to SA 29213: MIC in μM (lowest conc. with no visible growth); conditions: S. aureus 29213, Table 6
Procedure: (§1) Peptides according to SEQ ID NOs as listed in Table 1 were prepared by a commercial manufacturer (CS Bio, Menlo Park, Calif.) using solid phase synthesis. Antimicrobial activity was assessed by determining the Minimal Inhibitory Concentration (MIC) against S. aureus and E. coli. Briefly, Microbroth MICs were performed using CLSI methodology (VET01-S2). For S. aureus and E. coli ATCC strains, TSA with 5% lysed horse blood agar was used for overnight culturing at 37° C. ambient air. A 0.5 mM stock for each peptide was made with cell culture water, 0.01% acetic acid and serially diluted and spotted (10 μL) in a 96-well plate for in assay dose titration concentration of 50 μM to 0.05 μM. 0.5 McFarland Standard of each strain was diluted 1:250 in Mueller-Hinton Broth (MHB). 90 μL of culture suspension was then added upon drug in the 96-well plate for overnight incubation for 18-20 hours. The MIC was determined visually at the first well of no visible growth at the corresponding concentration.

E. coli ATCC 25922 = type: cell-based; conditions: E. coli 25922, Table 6
Procedure: as §1

[1] = system: MSSP (Methicillin-Susceptible Staphylococcus pseudintermedius); experiment: MIC against selected strains of MSSP; type: cell-based; set-up: MIC MSSP 49051 / MIC MSSP 81923 / MIC MSSP 84250 / Effect on MSSP 86000 / Effect on MSSP 72036 / Effect on MSSP 78032: unit not given beside the values; Effect on MSSP 71990 / Effect on MSSP 86001 / Effect on MSSP 72191 / Effect on MSSP 76986 / Effect on MSSP 77378 / Effect on MSSP 81923 / Effect on MSSP 84250 / Effect on MSSP 84658: unit: µM; conditions: for SP 49051: S. pseudintermedius 49051, Table 6; for Effect on MSSP 71990: strain 71990, Table 5; for Effect on MSSP 72036: strain 72036, Table 5; for Effect on MSSP 72191: strain 72191, Table 5; for Effect on MSSP 76986: strain 76986, Table 5; for Effect on MSSP 77378: strain 77378, Table 5; for Effect on MSSP 78032: strain 78032, Table 5; for Effect on MSSP 81923: strain 81923, Table 5; for Effect on MSSP 84250: strain 84250, Table 5; for Effect on MSSP 84658: strain 84658, Table 5; for Effect on MSSP 86000: strain 86000, Table 5; for Effect on MSSP 86001: strain 86001, Table 5
Method in brief: (§2)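 Broth microdilution MIC following CLSI VET01-S2: peptides titrated 50 μM to 0.05 μM in assay, inoculum a 0.5 McFarland suspension diluted 1:250 in Mueller-Hinton broth. Incubated overnight (18–20 h); MIC taken visually as lowest concentration without visible growth.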

[2] = system: MRSP (Methicillin-Resistant Staphylococcus pseudintermedius); experiment: MIC against selected strains of MRSP; type: cell-based; set-up: key to MIC MRSP 72192 / MIC MRSP 76923 / MR 71994 / Mr 88493 / MR 72035 / MR 72192 / MR 76923 / MR 79882 / MR 80279 / MR 81926 / MR 86002 / MR 87665: MIC in μM (visual, first well with no growth); conditions: for MR 71994: MRSP strain 71994, Table 6; for MR 72035: MRSP strain 72035, Table 6; for MR 72192: MRSP strain 72192, Table 6; for MR 76923: MRSP strain 76923, Table 6; for MR 79882: MRSP strain 79882, Table 6; for MR 80279: MRSP strain 80279, Table 6; for MR 81926: MRSP strain 81926, Table 6; for MR 86002: MRSP strain 86002, Table 6; for MR 87665: MRSP strain 87665, Table 6; for Mr 88493: MRSP strain 88493, Table 6
Method in brief: as §2

[3] = system: Canine-derived epithelial keratinocyte (CPEK) cells; type: cell-based
Method in brief: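 CPEK cells were dosed with peptides at 50 μM to 0.05 μM and incubated overnight at 37 °C, 5% CO2. Viability was read by CellTiter-Glo luminescence. Percent effect was normalised to 0.1% Triton X-100 (high) and phosphate buffer alone (zero).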

cRBC = type: cell-based, canine
Method in brief: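 Washed, plasma-free red cells were incubated with peptide titrated from 50 µM to 0.05 µM for 1 h at 37 °C. Hemolysis was read as OD at 405 nm, scaled between phosphate buffer alone (0%) and 1% Triton X-100 (100%).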

104 (KWCFRVCYFGICYRRCRD; Artificial Antimicrobial peptide) [compound 104]
SA 29213 (S. aureus ATCC 29213): 6.2
EC 25922 (E. coli ATCC 25922): 3.1 µM
SP 49051 [1]: 1.6
Effect on MSSP 71990 [1]: 1.6
Effect on MSSP 72036 [1]: 3.1
Effect on MSSP 72191 [1]: 1.6
Effect on MSSP 76986 [1]: 1.6
Effect on MSSP 77378 [1]: 1.6
Effect on MSSP 78032 [1]: 1.6
Effect on MSSP 81923 [1]: 3.1
Effect on MSSP 84250 [1]: 3.1
Effect on MSSP 84658 [1]: 1.6
Effect on MSSP 86000 [1]: 3.1
Effect on MSSP 86001 [1]: 1.6
MR 71994 [2]: 3.1
MR 72035 [2]: 1.6
MR 72192 [2]: 1.6
MR 76923 [2]: 1.6
MR 79882 [2]: 1.6
MR 80279 [2]: 1.6
MR 81926 [2]: 1.6
MR 86002 [2]: 1.6
MR 87665 [2]: 3.1
Mr 88493 [2]: 3.1
CPEK (50 μM) [3]: 6.0
cRBC (50 μM) (cRBC): 100.6

109 (KWCFRVCYRRICYRRCRD; Artificial Antimicrobial peptide) [compound 109]
SA 29213 (S. aureus ATCC 29213): 3.1
EC 25922 (E. coli ATCC 25922): 1.6 µM
SP 49051 [1]: 1.6
Effect on MSSP 71990 [1]: 1.6
Effect on MSSP 72036 [1]: 1.6
Effect on MSSP 72191 [1]: 1.6
Effect on MSSP 76986 [1]: 1.6
Effect on MSSP 77378 [1]: 1.6
Effect on MSSP 78032 [1]: 1.6
Effect on MSSP 81923 [1]: 1.6
Effect on MSSP 84250 [1]: 1.6
Effect on MSSP 84658 [1]: 1.6
Effect on MSSP 86000 [1]: 1.6
Effect on MSSP 86001 [1]: 1.6
MR 71994 [2]: 1.6
MR 72035 [2]: 1.6
MR 72192 [2]: 1.6
MR 76923 [2]: 1.6
MR 79882 [2]: 0.8
MR 80279 [2]: 1.6
MR 81926 [2]: 1.6
MR 86002 [2]: 1.6
MR 87665 [2]: 1.6
Mr 88493 [2]: 1.6
CPEK (50 μM) [3]: 19.2
cRBC (50 μM) (cRBC): 99.8

117 (GWCFYVCYRGICYRRCRD; Artificial Antimicrobial peptide) [compound 117]
SA 29213 (S. aureus ATCC 29213): 6.2
EC 25922 (E. coli ATCC 25922): 0.8 µM
SP 49051 [1]: 1.6
Effect on MSSP 71990 [1]: 1.6
Effect on MSSP 72036 [1]: 1.6
Effect on MSSP 72191 [1]: 1.6
Effect on MSSP 76986 [1]: 0.8
Effect on MSSP 77378 [1]: 0.8
Effect on MSSP 78032 [1]: 1.6
Effect on MSSP 81923 [1]: 1.6
Effect on MSSP 84250 [1]: 1.6
Effect on MSSP 84658 [1]: 1.6
Effect on MSSP 86000 [1]: 1.6
Effect on MSSP 86001 [1]: 1.6
MR 71994 [2]: 1.6
MR 72035 [2]: 1.6
MR 72192 [2]: 0.8
MR 76923 [2]: 1.6
MR 79882 [2]: 0.8
MR 80279 [2]: 1.6
MR 81926 [2]: 1.6
MR 86002 [2]: 0.8
MR 87665 [2]: 1.6
Mr 88493 [2]: 1.6
CPEK (50 μM) [3]: 14.7
cRBC (50 μM) (cRBC): 97.8
